In the COVID Moonshot data (paper PMC11187573), “Identification of SARS-CoV-2 Mpro inhibitors through deep reinforcement learning for de novo drug design and computational chemistry approaches” (RSC Medicinal Chemistry, 2024):

Columns and labels:
[1] = target: SARS-CoV-2 Main Protease (SARS-CoV-2) (UniProt P0DTD1)
[2] = target: SARS-CoV-2 Main Protease (SARS-CoV-2) (UniProt P0DTD1); details: for inhibition: 50.0 µM

Structure (SMILES)	IC50 [2]	inhibition [2]	further results
COC(=O)c1c(C)nn(C(=O)c2cccs2)c1-c1snnc1C	0.522 µM		inhibition ([1]; 20.0 µM): 35%; inhibition ([1]; 50.0 µM): 77%
Cc1ccc(CN2CCC(CNC(=O)Nc3cn(CC(C)C)c(=O)c4ccccc34)C2)cc1 (stereo not drawn)	92.3 µM		inhibition ([1]; 20.0 µM): -3.01%; inhibition ([1]; 50.0 µM): 0.927%
N#Cc1cnn(C(=O)c2cccs2)c1C1CC1	0.363 µM		inhibition ([1]; 20.0 µM): 33.2%; inhibition ([1]; 50.0 µM): 69%
O=c1oc(Nc2ccccc2)nc2ccccc12	0.363 µM		inhibition ([1]; 20.0 µM): 68.6%; inhibition ([1]; 50.0 µM): 90.4%
CSC1=C(C#N)C2(CCCCC2)C(C#N)=C(NC(=O)CCl)N1	1.52 µM	97.5%	IC50 [1]: 1.14 µM
O=C(CCl)N1CCN(S(=O)(=O)c2ccc(Cc3cccc4ccccc34)cc2)CC1	15.2 µM	89%	inhibition ([1]; 20.0 µM): 20.6%; inhibition ([1]; 50.0 µM): 29.9%
Cc1cccc(NC(=O)CN2C(=O)C(=O)c3ccccc32)c1	42.4 µM	53.7%	inhibition ([1]; 20.0 µM): -4.74%; inhibition ([1]; 50.0 µM): -1.42%
O=S(=O)(Cc1noc(C2CC2)n1)Nc1cccnc1		9.43%	inhibition ([1]; 20.0 µM): -2.48%; inhibition ([1]; 50.0 µM): -1.33%
Cc1nc[nH]c1CN1CCN(Cc2cccc(Cl)c2)C1=O		0%	inhibition ([1]; 20.0 µM): -0.267%; inhibition ([1]; 50.0 µM): 2.39%
C=CC(=O)N1CC(NCc2c[nH]c3ccc(C#N)cc23)C1		0%	inhibition ([1]; 20.0 µM): -2.15%; inhibition ([1]; 50.0 µM): 15.4%
C=CC(=O)N(C1CC(C)OC1=O)C(C(=O)NC(C)(C)C)c1cccnc1 (stereo not drawn)		0%	inhibition ([1]; 20.0 µM): -2.18%; inhibition ([1]; 50.0 µM): 1.34%
O=[N+]([O-])c1cnc(Sc2nccc(-c3cccnc3)n2)s1	1.44 µM		inhibition ([1]; 20.0 µM): 9.63%; inhibition ([1]; 50.0 µM): 37.5%
N#Cc1cncc(NC(=O)Cc2c[nH]c3ncccc23)c1		0%	inhibition ([1]; 20.0 µM): -0.384%; inhibition ([1]; 50.0 µM): 0.0775%
CCOC(=O)c1cc(-c2ccccc2)sc1NC(=O)Cc1csc(-c2ccccc2)n1	2.69 µM		inhibition ([1]; 20.0 µM): 91.8%; inhibition ([1]; 50.0 µM): 97.9%
C=CC(=O)N(C1CCOC1=O)C(C(=O)NC(C)(C)C)c1cccnc1 (stereo not drawn)		0%	inhibition ([1]; 20.0 µM): -5.08%; inhibition ([1]; 50.0 µM): -7.63%
Cc1ccncc1NC(=O)Cc1cc(Cl)cc(OCc2n[nH]c3ccccc23)c1		9.6%	
Cc1ccncc1NC(=O)Cc1cc(Cl)cc(-c2ccc(C3CC3(F)F)cc2)c1 (stereo not drawn)	2.83 µM		
CNc1ccc(N(C(=O)Cn2nnc3ccccc32)c2cccc(Cl)c2)cc1	10.6 µM		
O=C(CN(C(=O)Cc1cccnc1)c1ccc(-c2ncccn2)cc1)N1CCNCC1		0%	
CC(C)(C)c1ccc(N(C(=O)c2ccco2)[C@@H](C(=O)NCCc2cccc(F)c2)c2cccnc2)cc1		100%	
Cc1ccncc1NC(=O)Cc1cc(C#N)cc(OC2CC(=O)N2)c1 (stereo not drawn)	8.63 µM		
COc1cccc2[nH]c(=O)cc(C(=O)N3CCN(c4cccc(Cl)c4)CC3)c12	1.84 µM		
O=C(Cc1cncc2ccccc12)Nc1cccc(Cl)c1	7.2 µM		
CCC(=O)Nc1ccc(N(Cc2ccccc2)C(=O)Nn2nnc3ccccc32)cc1	3.73 µM		
COc1cc2c(c3ccccc13)OC(C)(C)CC2Oc1cc2c(cc1C)C(=O)c1ccccc1C2=O (stereo not drawn)		4%	
COc1ccc2nnn(CC(=O)N(Cc3ccccn3)c3ccc(C4CCNCC4)cc3)c2c1	32.2 µM	94.8%	
O=C(Cc1cc(Cl)cc(Cc2ccn[nH]2)c1)Nc1cncc2ccccc12	9.39 µM		

Structure (SMILES)	IC50 [2]	inhibition [2]	further results
Cc1ccncc1NC(=O)Cc1cc(Cl)cc(C2COC2)c1	56.9 µM		
O=C(Cc1cccc(Cl)c1)N[C@H]1CCNC1=O (stereo in doubt)		0%	
Nc1nn(C(=O)C2CCOc3ccc(Cl)cc32)c2ccncc12 (stereo not drawn)	95.2 µM		
Cc1ccncc1NC(=O)Cc1cc(Cl)cc(NCC(C)(C)C#N)c1	32.9 µM		
CC(=O)O[C@@H]1OC2OC(=O)[C@H](C)C3=C([C@@]4(C)CCCC(C)(C)C4)CCC1C32 (stereo in doubt)		0%	
O=C(Nc1cncc2ccccc12)C1CCOc2ccc(Br)cc21 (stereo not drawn)		90.6%	
C[C@@H]1C[C@H](C(=O)Nc2cncc3ccccc23)c2cc(Cl)ccc2O1 (stereo in doubt)	2.66 µM		
C[N+]1=C2C=C(NCCc3ccc(O)cc3)C(=O)c3[nH]cc(c32)CC1		2.74%	
O=C(Nc1cncc2ccccc12)[C@H]1COc2ccc(Cl)cc2C1 (stereo in doubt)	37.7 µM		
O=C(Nc1cncc2ccccc12)C1CCCc2ccc(Cl)cc21 (stereo not drawn)	0.289 µM		
O=C(Cn1nnc2ccccc21)N(Cc1cccc(Cl)c1)c1ccc(N2CCCCC2)cc1	6.02 µM		
O=c1ccc2c3ccc(=O)c4c(O)ccc(c5ccc(O)c1c52)c43		42.5%	
Cc1c(N)cncc1NC(=O)Cc1cccc(C#N)c1	32.2 µM		
O=C(Cn1nnc2ccccc21)Nc1cccc(Cl)c1	29.4 µM	55.1%	
COc1ccc2c(=O)cc(-c3cc(OCc4ccccc4)ccc3OC)oc2c1		1.98%	
O=C(Cc1cncc2ccccc12)N1CCOc2ccc(Cl)cc21	3.66 µM		
O=C(Cc1cccc(Cl)c1)Nn1nnc2ccccc21	31 µM		
O=C(Cc1cc(Cl)cc(CC2CC(=O)N2)c1)Nc1cncc2ccccc12 (stereo not drawn)	4.42 µM		
O=C(Cc1cccc(Cl)c1)Nc1[nH]nc2cccc(F)c12	81.8 µM		
O=C(Nc1ccccc1)[C@@H](c1ccccc1)N1Cc2ccccc2C1=O (stereo in doubt)	99.8 µM		
CCCCN1C(=O)C(=O)c2cc(Br)cc(C)c21	57.6 µM		
Cn1c(C(NC(=O)Cc2cc3ccccc3[nH]2)c2cccc(Cl)c2)nc2ccccc21 (stereo not drawn)	31.4 µM		
Cc1ccncc1NC(=O)Cc1cc(Cl)cc(CNS(C)(=O)=O)c1	32.2 µM		
Nc1nn(C(=O)Cc2cccc(Cl)c2)c2ccc(F)cc12	94.2 µM		
CC(C)(C)c1ccc(N(C(=O)c2cnc[nH]2)C(C(=O)NCCc2cccc(F)c2)c2cccnc2)cc1 (stereo not drawn)	1.05 µM	100%	
O=c1cc(-c2ccc(OCc3ccccc3)cc2)oc2ccccc12		35.9%	
